# According to US10251893B2 (NOVARTIS AG, priority 2009, dated 2019):
# Tested on: Wnt signaling
# Assay: Wnt-Luc reporter assay for pathway inhibition of Wnt signaling
# Assay type: cell-based, Mouse (TM3 Wnt-Luc cells) or Human (293 Wnt-Luc cells)
# Details: 24 h, Wnt-Luc reporter cells co-cultured with L-cell Wnt3a cells, luciferase luminescence reduced by 50%
# Description: The exemplified compounds of the invention are summarized in Table 1, with IC50 values measured using Wnt-Luc reporter assays.
row,Compound,IC50 [nM]
1,Cc1cc(-c2ccc(CC(=O)Nc3ccc(-c4ccccc4)cn3)cc2)ccn1 [Cpd 26],< 0.4
2,Cc1cc(CC(=O)Nc2ccc(-c3cccc(F)c3)cn2)cnc1-c1ccnnc1 [Cpd 74],< 0.1
3,Cc1cc(-c2ncc(CC(=O)Nc3ccc(-c4cnccn4)cn3)cc2C)ccn1 [Cpd 86],0.38
4,Cc1cc(-c2ccc(CC(=O)Nc3ccc(-c4ccccc4)nc3)cc2)ccn1 [compound 36],< 0.11
5,Cc1cc(-c2ccc(CC(=O)Nc3ccc(-c4ccccc4)cn3)cn2)ccn1 [compound 51],< 0.14
6,Cc1cc(-c2ccc(CC(=O)Nc3ccc(-c4cccc(F)c4)cn3)cc2)ccn1 [compound 56],< 0.09
7,Cc1cc(-c2ccc(CC(=O)Nc3ccc(-c4cccnc4)cc3)cc2)ccn1 [compound 59],< 0.11
